Results taken from ChEMBL document CHEMBL1145719, “Rigidone, a sesquiterpene o-quinone from the gorgonian Pseudopterogorgia rigida” (J Nat Prod, 1997).

Target: T1, Macrophage scavenger receptor types I and II (Homo sapiens, UniProt P21757)
T1 sequence (P21757 whole entry): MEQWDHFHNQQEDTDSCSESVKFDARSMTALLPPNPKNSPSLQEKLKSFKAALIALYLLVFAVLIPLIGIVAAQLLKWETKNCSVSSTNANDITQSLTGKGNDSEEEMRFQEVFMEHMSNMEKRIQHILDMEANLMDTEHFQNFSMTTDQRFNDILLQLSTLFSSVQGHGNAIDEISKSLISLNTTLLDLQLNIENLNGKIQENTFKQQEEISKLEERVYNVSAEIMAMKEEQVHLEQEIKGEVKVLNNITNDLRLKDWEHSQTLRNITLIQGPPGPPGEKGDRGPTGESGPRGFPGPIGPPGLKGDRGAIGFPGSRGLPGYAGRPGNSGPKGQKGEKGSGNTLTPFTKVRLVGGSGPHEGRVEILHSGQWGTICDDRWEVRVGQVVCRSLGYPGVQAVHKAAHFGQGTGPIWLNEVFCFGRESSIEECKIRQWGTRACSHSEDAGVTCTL
Test: Inhibition of full-length MSR1 transfected in HEK293 cells by fluorimetry
Type: cell-based

IC50 | SMILES
71 µM | CC(C)=CCC[C@H](C)c1c(O)c(O)c(C)c2nc3ccccc3nc12
5.6 µM | CC(C)=CCC[C@H](C)C1=C(O)C=C(C)C(=O)C1=O [RIGIDONE]
